These results are taken from patent publication US20230058189A1, “QUINOLIN-4-ONE AND 4(1H)-CINNOLINONE COMPOUNDS AND METHODS OF USING SAME” (Frequency Therapeutics, Inc., priority 2019, published 2023).

Molecules are shown by their SMILES. A value given as a limit tells only on which side of the number the result lay.

Common to all, as to assay type: biochemical
The target in one test is LSD-1 (Homo sapiens, UniProt O60341). The test can be described thus: LSD-1 A-screen (AlphaScreen) demethylase enzymatic assay. Conditions: 50 μM compound; approximate values; read-out: Potency LSD-1 % Inhibition at 50 μM. In short, it runs like this:
(§1)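 Recombinant human demethylase was preincubated 30 min with compound, then reacted with histone H3 peptide substrate for 60 min at room temperature (1% DMSO, duplicates). Product was detected by AlphaScreen with primary antibody, acceptor and streptavidin donor beads. No-enzyme and no-compound wells set 0% and 100% activity; IC50 came from sigmoidal dose-response fits.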

The next test concerns the target GSK3β (Homo sapiens, UniProt P49841). As to the kind of experiment: GSK3β in vitro enzymatic assay (Kinase-Glo Max luminescence). Conditions: recombinant human GSK3, 10 μM ATP; approximate values; read-out: Potency GSK3beta. In short, it runs like this: (§2)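 Recombinant human enzyme was run for 40 min at 30 °C in Tris pH 7.4 with 0.1 mg/ml GSK tide substrate, 10 uM ATP and 1% DMSO final, in duplicate. Remaining ATP was read by Kinase-Glo Max luminescence. IC50 came from a sigmoidal fit of percent activity.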
(Kinase-Glo reads ATP consumption through a luciferase reaction.)

In another test the target is T1, LSD2 (Homo sapiens, UniProt Q8NB78).
T1 sequence (Q8NB78 1-822): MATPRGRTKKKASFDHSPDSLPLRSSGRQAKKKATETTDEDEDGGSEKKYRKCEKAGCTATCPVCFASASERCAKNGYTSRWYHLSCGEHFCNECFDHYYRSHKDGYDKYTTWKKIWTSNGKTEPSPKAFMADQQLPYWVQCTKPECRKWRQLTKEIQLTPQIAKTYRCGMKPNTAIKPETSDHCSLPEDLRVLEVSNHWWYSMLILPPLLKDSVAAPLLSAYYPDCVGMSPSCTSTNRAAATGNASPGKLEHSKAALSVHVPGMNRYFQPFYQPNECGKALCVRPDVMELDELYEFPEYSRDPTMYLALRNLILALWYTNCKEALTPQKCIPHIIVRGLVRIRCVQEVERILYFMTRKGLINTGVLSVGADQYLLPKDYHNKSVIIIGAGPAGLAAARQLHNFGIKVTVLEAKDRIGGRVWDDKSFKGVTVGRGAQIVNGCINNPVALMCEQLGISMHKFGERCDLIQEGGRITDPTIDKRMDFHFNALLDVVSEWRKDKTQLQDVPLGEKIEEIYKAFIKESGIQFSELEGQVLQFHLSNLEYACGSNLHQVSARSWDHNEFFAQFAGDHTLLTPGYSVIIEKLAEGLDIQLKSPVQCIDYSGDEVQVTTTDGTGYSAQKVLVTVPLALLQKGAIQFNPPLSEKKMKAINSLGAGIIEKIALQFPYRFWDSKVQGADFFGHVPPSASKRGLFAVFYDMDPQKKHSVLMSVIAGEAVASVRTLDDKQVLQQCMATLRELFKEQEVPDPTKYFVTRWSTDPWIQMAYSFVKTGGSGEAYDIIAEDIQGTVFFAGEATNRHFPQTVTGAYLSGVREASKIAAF
As to the kind of experiment: LSD2 A-screen (AlphaScreen) demethylase enzymatic assay. The following applies: 50 μM compound; approximate values; read-out: Potency LSD-2 % Inhibition at 50 μM. In short, it runs like this:
as §1
(Alpha assays give light when donor and acceptor beads are brought close together.)

A further test deals with GSK3α (Homo sapiens, UniProt P49840). As to the kind of experiment: GSK3α in vitro enzymatic assay (Kinase-Glo Max luminescence). Conditions: recombinant human GSK3, 10 μM ATP; approximate values; read-out: Potency GSK3alpha. In short, it runs like this:
as §2

GSK3β, sequence (P49841 whole entry): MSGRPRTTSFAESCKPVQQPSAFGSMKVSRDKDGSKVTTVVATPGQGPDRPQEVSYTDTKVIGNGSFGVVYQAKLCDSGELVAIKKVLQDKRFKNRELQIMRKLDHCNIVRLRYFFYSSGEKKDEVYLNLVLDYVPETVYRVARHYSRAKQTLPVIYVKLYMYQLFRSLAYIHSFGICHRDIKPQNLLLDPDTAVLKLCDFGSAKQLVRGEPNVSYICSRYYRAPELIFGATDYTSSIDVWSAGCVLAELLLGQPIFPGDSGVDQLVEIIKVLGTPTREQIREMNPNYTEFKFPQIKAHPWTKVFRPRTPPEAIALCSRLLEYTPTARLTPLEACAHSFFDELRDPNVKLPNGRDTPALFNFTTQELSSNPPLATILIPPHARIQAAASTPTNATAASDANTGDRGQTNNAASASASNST
GSK3α, sequence (P49840 whole entry): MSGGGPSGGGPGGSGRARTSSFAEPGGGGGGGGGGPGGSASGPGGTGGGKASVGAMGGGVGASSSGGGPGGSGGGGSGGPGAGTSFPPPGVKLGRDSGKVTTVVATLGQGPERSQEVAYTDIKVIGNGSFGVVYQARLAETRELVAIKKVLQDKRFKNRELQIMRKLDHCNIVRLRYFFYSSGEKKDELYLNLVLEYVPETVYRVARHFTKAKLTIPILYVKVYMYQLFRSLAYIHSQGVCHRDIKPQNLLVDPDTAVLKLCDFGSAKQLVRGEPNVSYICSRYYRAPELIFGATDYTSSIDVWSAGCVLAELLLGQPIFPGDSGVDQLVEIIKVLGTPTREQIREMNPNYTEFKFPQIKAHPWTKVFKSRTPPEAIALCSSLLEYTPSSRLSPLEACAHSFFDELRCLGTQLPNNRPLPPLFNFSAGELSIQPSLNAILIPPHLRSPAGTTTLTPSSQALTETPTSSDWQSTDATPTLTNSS

Take `CCn1cc(C(=O)O)c(=O)c2c(N)c(F)c(N[C@@H]3C[C@H]3c3ccccc3)cc21` [Compound I-21]: the figures for the inhibition at 50 µM at LSD-1 and at LSD2 were 19% and 0%, respectively. For the same compound, the values for the IC50 at GSK3β and on GSK3α were 334 nM and 392 nM, respectively.

In the case of `CCn1cc(C(=O)O)c(=O)c2c(N)c(F)c(N[C@H]3C[C@@H]3c3ccccc3)cc21` [Compound I-22], the inhibition at 50 µM at LSD-1 came to 11%; on LSD2, 2%. The values for the IC50 at GSK3β and on GSK3α were 115 nM and 137 nM, respectively.

Take `CCn1cc(C(=O)O)c(=O)c2c(N)cc(NCCCc3ccccc3)cc21` [Compound I-57]: the inhibition at 50 µM on LSD-1 came out at 83%; on LSD2, 42%. Moreover, the IC50 amounted to 1760 nM at GSK3β and 762 nM at GSK3α.

`CCn1cc(C(=O)O)c(=O)c2c(N)c(F)c(N[C@H]3C[C@H](c4ccccc4)C3)cc21` [Compound I-60]: the values for the inhibition at 50 µM at LSD-1 and on LSD2 were 15% and 4%, respectively. For the same compound, the IC50 on GSK3β is 31 nM; on GSK3α it was 32 nM.

For `CCn1cc(C(=O)O)c(=O)c2c(N)c(F)c(N[C@H]3C[C@@H](c4ccccc4)C3)cc21` [Compound I-61], the inhibition at 50 µM was found to be 26% at LSD-1 and 15% on LSD2. The results for the IC50 on GSK3β and at GSK3α were 268 nM and 72 nM, respectively.

`CCn1cc(C(=O)O)c(=O)c2c(N)cc(NCCc3ccccc3)c(F)c21` [Compound I-65]: the inhibition at 50 µM on LSD-1 came out at 88%; at LSD2 it was 38%. In addition, the IC50 at GSK3β and on GSK3α was greater than 10000 nM each time.

In the case of `CCn1cc(C(N)=O)c(=O)c2c(N)c(F)c(NCCc3ccccc3)cc21` [Compound I-66], the inhibition at 50 µM at LSD-1 is 6%; on LSD2, 4%. The IC50 at GSK3β is 2.5 nM; on GSK3α it was 2.6 nM.

On to `CCn1cc(C#N)c(=O)c2c(N)c(F)c(NCCc3ccccc3)cc21` [Compound I-67], for which the inhibition at 50 µM on LSD-1 stood at 8%; at LSD2, 4%. Further, the IC50 was 1.9 nM at GSK3β and 2 nM on GSK3α.

On to `CCn1cc(-c2nnn[nH]2)c(=O)c2c(N)c(F)c(NCCc3ccccc3)cc21` [Compound I-68], for which the inhibition at 50 µM amounted to 0% on LSD-1 and 96% on LSD2. Further, the IC50 at GSK3β is 711 nM; at GSK3α, 581 nM.

On to `CCn1cc(C(=O)O)c(=O)c2c(N)c(F)c(NC3CN(c4ccccc4)C3)cc21` [Compound I-69], for which the inhibition at 50 µM at LSD-1 came out at 17%; on LSD2 it was 3%. Besides, the IC50 came out at 52 nM on GSK3β and 61 nM at GSK3α.

As a reminder, the inhibition is the drop in the measured response relative to a control, in per cent.
